Data reported in patent publication US9522888B2, “Substituted bicyclic compounds” (BRISTOL-MYERS SQUIBB COMPANY, priority 2014, dated 2016).

What was measured:
[1] = molecular target: S1P1 (membranes prepared from S1P1/CHO cells) (Homo sapiens (Human), UniProt P21453); experiment: Receptor [35S] GTPγS binding assay (S1P1 GTPγS); format: biochemical; conditions: phosphate examples; read-out: S1P1 GTPγS
Procedure: (§1) Receptor [^35S] GTPγS Binding Assays: (S1P1 GTPγS/S1P3 GTPγS)
Compounds were loaded in a 384 Falcon v-bottom plate (0.5 μl/well in a 11 point, 3-fold dilution). Membranes prepared from S1P1/CHO cells or EDG3-Gal5-bla HEK293T cells (EDG3 equivalent S1P3) were added to the compound plate (40 μl/well, final protein 3 μg/well) with MULTIDROP®. [^35S] GTP (1250 Ci/mmol, Perkin Elmer) was diluted in assay buffer: 20 mM HEPES, pH7.5, 10 mM MgCl2, 150 mM NaCl, 1 mM EGTA (ethylene glycol tetraacetic acid), 1 mM DTT (Dithiothreitol), 10 μM GDP, 0.1% fatty acid free BSA, and 10 μg/ml Saponin to 0.4 nM. 40 μl of the [^35S] GTP solution was added to the compound plate with a final concentration of 0.2 nM. The reaction was kept at room temperature for 45 min. At the end of incubation, all the mixtures in the compound plate were transferred to Millipore 384-well FB filter plates via the VELOCITY11® Vprep liquid handler. The filter plate was washed with water 4 times by using the manifold Embla plate washer and dried at 60° C. for 45 min. MicroScint 20 scintillation fluid (30 μl) was added to each well for counting on the Packard TOPCOUNT®. […]

human S1P1 = human S1P1 (Homo sapiens (Human), UniProt P21453); experiment: S1P1 binding assay (33P-S1P radioligand competition, CHO cell membranes); conditions: phosphate examples; read-out: S1P1 Binding
Procedure: Membranes were prepared from CHO cells expressing human S1P1. Cells pellets (1×10^9 cells/pellet) were suspended in buffer containing 20 mM HEPES (4-(2-hydroxyethyl)-1-piperazineethanesulfonic acid), pH 7.5, 50 mM NaCl, 2 mM EDTA (Ethylenediaminetetraacetic acid) and Protease Inhibitor cocktail (Roche), and disrupted on ice using the Polytron homogenizer. The homogenate was centrifuged at 20,000 rpm (48,000 g) and the supernatant was discarded. The membrane pellets were resuspended in buffer containing 50 mM HEPES, pH 7.5, 100 mM NaCl, 1 mM MgCl2, 2 mM EDTA and stored in aliquots at −80° C. after protein concentration determination.

hS1P1/CHO cells = hS1P1/CHO cells (Homo sapiens (Human), UniProt P21453); experiment: hS1P1 ERK phosphorylation (S1P1 pERK); format: cell-based; conditions: phosphate examples
Procedure: hS1P1 ERK Phosphorylation (S1P1 pERK)
hS1P1/CHO cells were plated into BD Amine 384-well plates the day before the assay. On the day of the assay, growth medium was removed and replaced with serum-free medium (Ham's F-12 Invitrogen) and incubated for 2 hours. Test compounds pre-diluted in HBSS (Gibco)/20 mM HEPES (Gibco) were transferred to the cell plates and incubated for 7 minutes at 37° C. Cells were lysed in lysis buffer (Perkin Elmer) and phospho-ERK was measured using the SureFire pERK kit (Perkin Elmer) as described by the manufacturer. Data was plotted as percentage activation of the test compound relative to the efficacy of 10 μM S1P.

[2] = molecular target: S1P3 (membranes prepared from EDG3-Gal5-bla HEK293T cells) (Homo sapiens (Human), UniProt Q99500); experiment: Receptor [35S] GTPγS binding assay (S1P3 GTPγS); format: biochemical; conditions: phosphate examples; read-out: S1P3 GTPγS
Procedure: as §1
Compounds were loaded in a 384 Falcon v-bottom plate (0.5 μl/well in a 11 point, 3-fold dilution). Membranes prepared from S1P1/CHO cells or EDG3-Gal5-bla HEK293T cells (EDG3 equivalent S1P3) were added to the compound plate (40 μl/well, final protein 3 μg/well) with MULTIDROP®. [^35S] GTP (1250 Ci/mmol, Perkin Elmer) was diluted in assay buffer: 20 mM HEPES, pH7.5, 10 mM MgCl2, 150 mM NaCl, 1 mM EGTA (ethylene glycol tetraacetic acid), 1 mM DTT (Dithiothreitol), 10 μM GDP, 0.1% fatty acid free BSA, and 10 μg/ml Saponin to 0.4 nM. 40 μl of the [^35S] GTP solution was added to the compound plate with a final concentration of 0.2 nM. The reaction was kept at room temperature for 45 min. At the end of incubation, all the mixtures in the compound plate were transferred to Millipore 384-well FB filter plates via the VELOCITY11® Vprep liquid handler. The filter plate was washed with water 4 times by using the manifold Embla plate washer and dried at 60° C. for 45 min. MicroScint 20 scintillation fluid (30 μl) was added to each well for counting on the Packard TOPCOUNT®.
A smaller value for GTPγS S1P1 EC50 value indicated greater activity for the compound in the GTPγS S1P1 binding assay. A larger value for the GTPγS S1P3 EC50 value indicated less activity in the GTPγS S1P3 binding assay. […] Thus the compounds of the present invention may be used in treating, preventing, or curing various S1P1 receptor-related conditions while reducing or minimizing the side effects due to S1P3 activity. The selectivity of the compounds of the present invention indicate their potential use in treating, preventing, or curing autoimmune and inflammatory diseases such as multiple sclerosis, rheumatoid arthritis, inflammatory bowel disease, lupus, psoriasis, or vascular diseases, while reducing or minimizing possible side effects due to S1P3 activity. Other potential uses of the compounds of the present invention include minimizing or reducing rejection of transplanted organs, while reducing or minimizing side effects due to S1P3 activity.

Chain of hS1P1/CHO cells (P21453 whole entry): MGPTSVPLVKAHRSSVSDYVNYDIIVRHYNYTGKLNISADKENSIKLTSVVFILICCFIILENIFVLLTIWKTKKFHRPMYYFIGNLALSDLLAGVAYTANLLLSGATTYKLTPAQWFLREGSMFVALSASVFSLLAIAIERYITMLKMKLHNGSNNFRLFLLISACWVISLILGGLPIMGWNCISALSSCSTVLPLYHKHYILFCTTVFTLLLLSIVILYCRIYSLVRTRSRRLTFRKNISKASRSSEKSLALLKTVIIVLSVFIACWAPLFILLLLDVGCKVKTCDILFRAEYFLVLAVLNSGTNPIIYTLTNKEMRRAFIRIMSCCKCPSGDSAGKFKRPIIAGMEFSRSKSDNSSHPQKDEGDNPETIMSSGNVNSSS
Chain of S1P1 (membranes prepared from S1P1/CHO cells) (P21453 whole entry): as above
Chain of human S1P1 (P21453 whole entry): as above
Chain of S1P3 (membranes prepared from EDG3-Gal5-bla HEK293T cells) (Q99500 whole entry): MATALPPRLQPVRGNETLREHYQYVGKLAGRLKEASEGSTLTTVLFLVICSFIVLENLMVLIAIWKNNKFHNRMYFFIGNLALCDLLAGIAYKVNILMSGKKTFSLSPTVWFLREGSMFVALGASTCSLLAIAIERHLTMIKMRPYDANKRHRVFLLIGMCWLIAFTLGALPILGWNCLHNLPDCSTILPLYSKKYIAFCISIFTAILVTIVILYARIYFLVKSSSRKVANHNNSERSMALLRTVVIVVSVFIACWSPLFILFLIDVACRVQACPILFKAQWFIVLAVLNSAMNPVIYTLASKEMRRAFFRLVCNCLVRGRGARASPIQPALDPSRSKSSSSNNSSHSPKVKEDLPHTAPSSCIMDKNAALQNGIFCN

EC50 [1] [nM]	IC50 (human S1P1) [nM]	EC50 (hS1P1/CHO cells) [nM]	EC50 [2] [nM]	Structure (SMILES)
10 to 100	10 to 100	< 10	> 625	NC1(COP(=O)(O)O)CC[C@H](c2ccc3c(c2)CC[C@@H](c2ccccc2)C3)C1 (single isomer, unassigned) [compound 570]
100 to 1000	100 to 1000	10 to 100	> 625	C=CCOCCO[C@@H]1CCc2cc(C3CCC(N)(COP(=O)(O)O)C3)ccc2C1 (single isomer, unassigned) [compound 579]
10 to 100	< 10	< 10	> 625	N[C@@]1(COP(=O)(O)O)CC[C@@H](c2ccc3c(c2)CC[C@H](OCCOc2ccccc2)C3)C1 (single isomer, unassigned) [compound 582]
10 to 100	< 10	< 10	> 100	N[C@@]1(COP(=O)(O)O)CC[C@@H](c2ccc3c(c2)CC[C@H](OCCOCc2cccs2)C3)C1 (single isomer, unassigned) [compound 589]
10 to 100	< 10	10 to 100	> 625	COc1ccc(CC[C@@H]2CCc3cc(C4CCC(N)(COP(=O)(O)O)C4)ccc3C2)cc1 (single isomer, unassigned) [compound 593]
< 10	< 10	10 to 100	> 625	COCCCCCC[C@H]1CCc2cc(C3CCC(N)(COP(=O)(O)O)C3)ccc2C1 (single isomer, unassigned) [compound 597]
< 10	< 10	< 10	> 625	COCCCCC[C@@H]1CCc2cc(C3CCC(N)(COP(=O)(O)O)C3)ccc2C1 (single isomer, unassigned) [compound 599]
100 to 1000	< 10	< 10	> 100	C=CCOCCC[C@@H]1CCc2cc(C3CCC(N)(COP(=O)(O)O)C3)ccc2C1 (single isomer, unassigned) [compound 601]
100 to 1000	100 to 1000	10 to 100	> 625	N[C@@]1(COP(=O)(O)O)CC[C@@H](c2ccc3c(c2)CC[C@H](CCc2ccc4ccccc4n2)C3)C1 (single isomer, unassigned) [compound 604]
10 to 100	10 to 100	< 10	> 625	N[C@@]1(COP(=O)(O)O)CC[C@@H](c2ccc3c(c2)CC[C@H](CCc2cccnc2)C3)C1 (single isomer, unassigned) [compound 606]
100 to 1000	100 to 1000	10 to 100	> 625	COc1cccc(F)c1CC[C@H]1CCc2cc([C@@H]3CC[C@@](N)(COP(=O)(O)O)C3)ccc2C1 (single isomer, unassigned) [compound 607]
< 10	< 10	< 10	> 625	COc1cc(CC[C@H]2CCc3cc([C@@H]4CC[C@@](N)(COP(=O)(O)O)C4)ccc3C2)ccc1F (single isomer, unassigned) [compound 608]
10 to 100	10 to 100	< 10	> 625	COc1ccc(F)c(CC[C@H]2CCc3cc([C@@H]4CC[C@@](N)(COP(=O)(O)O)C4)ccc3C2)c1 (single isomer, unassigned) [compound 609]
< 10	< 10	< 10	> 625	COC(C)CCCCC1CCc2cc([C@H]3CC[C@](N)(COP(=O)(O)O)C3)ccc2C1 (single isomer, unassigned) [compound 611]
–	100 to 1000	10 to 100	> 625	Cn1cc(COC[C@@H]2CCc3cc([C@H]4CC[C@](N)(COP(=O)(O)O)C4)ccc3C2)cn1 [compound 471]
–	< 10	10 to 100	> 625	N[C@]1(COP(=O)(O)O)CC[C@H](c2ccc3c(c2)CC[C@@H](COCc2ccsc2)C3)C1 [compound 473]
10 to 100	< 10	< 10	–	Cc1cc(COC[C@@H]2CCc3cc([C@H]4CC[C@](N)(COP(=O)(O)O)C4)ccc3C2)sc1C [compound 488]
10 to 100	< 10	< 10	–	CCCSC[C@H]1CCc2cc([C@H]3CC[C@](N)(COP(=O)(O)O)C3)ccc2C1 [compound 502]
–	100 to 1000	10 to 100	> 625	N[C@]1(COP(=O)(O)O)CC[C@H](c2ccc3c(c2)CC[C@H](c2ccncc2)C3)C1 [compound 574]
< 10	–	< 10	> 100	N[C@@]1(COP(=O)(O)O)CC[C@@H](c2ccc3c(c2)CC[C@@H](OCCOc2ccccc2)C3)C1 [compound 583]
–	1000 to 10000	100 to 1000	> 625	N[C@@]1(COP(=O)(O)O)CCC(c2ccc3c(c2)CN(CCCc2ccccc2)C3=O)C1 (stereo partly drawn) [compound 613]
100 to 1000	–	10 to 100	> 625	CCCCNC(=O)OC1CCc2cc([C@H]3CC[C@@](N)(COP(=O)(O)O)C3)ccc2C1 (stereo partly drawn) [compound 625]
< 10	–	< 10	> 625	CCCCN(C)C(=O)OC1CCc2cc([C@H]3CC[C@](N)(COP(=O)(O)O)C3)ccc2C1 (stereo partly drawn) [compound 628]
–	< 10	100 to 1000	> 625	CCCCC1CCCC2(CCc3cc([C@H]4CC[C@](N)(COP(=O)(O)O)C4)ccc3C2)O1 (stereo partly drawn) [compound 630]
–	10 to 100	10 to 100	> 625	N[C@]1(COP(=O)(O)O)CC[C@H](c2ccc3c(c2)CCC2(CCCCO2)C3)C1 (stereo partly drawn) [compound 634]
100 to 1000	–	10 to 100	> 625	CCCC/C=C/C1=Cc2ccc([C@H]3CC[C@](N)(COP(=O)(O)O)C3)cc2CC1 [compound 647]
100 to 1000	10 to 100	10 to 100	–	CCCCC=C[C@H]1CCc2cc([C@H]3CC[C@](N)(COP(=O)(O)O)C3)ccc2C1 [compound 649]

Structure (SMILES)	EC50 [1] [nM]	IC50 (human S1P1) [nM]	EC50 (hS1P1/CHO cells) [nM]	EC50 [2] [nM]
CCCCCOC[C@@H]1COc2cc([C@H]3CC[C@](N)(COP(=O)(O)O)C3)ccc2O1 [Example 412, ((1R,3S)-1-amino-3-((R)-2-((pentyloxy)methyl)-2,3-dihydrobenzo[b][1,4]dioxin-6-yl)cyclopentyl)methyl dihydrogen phosphate]	< 10	< 10	< 10	> 625
